Patent publication EP4745134A1 (Jiangsu Yahong Meditech Co., Ltd., priority 2023, dated 2025)
Where two headings read alike, the source gives them in different places.

What was measured:
HCT116 MTAP KO cells = experiment: Inhibitory activity against cell proliferation (CellTiter Glo, 6 days), HCT116 MTAP KO; type: cell-based; settings: for IC50: Homo sapiens, HCT-116, 144 h, HCT116 MTAP KO cells, 6 days, CellTiter Glo, read-out: HCT116 MTAP KO IC50; for Selectivity HCT 116-WT/ HCT116 MTAP KO: ratio of IC50 HCT116-WT / HCT116 MTAP KO
Summary of the method: (§1)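 250 cells/well, McCoy's 5A + 10% FBS, o/n 37°C 5% CO2; cpd 8-pt 4-fold from 10000 nM, 6 d; CTG lum on day 7; IC50 vs DMSO.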

PRMT5-MTA = PRMT5-MTA (Homo sapiens, UniProt O14744); experiment: Enzymatic inhibitory activity against PRMT5-MTA (AlphaScreen); type: biochemical
Summary of the method: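 PRMT5/[…] (1 nM) was preincubated for 30 min at room temperature with 1 µM […] and 2.5 µM SAM, then exposed to compound (10-point, 3-fold from 1000 nM) for 15 min at 23 °C. Histone H4 substrate (5 nM) was added and reacted for 45 min at 23 °C. Symmetric dimethyl-R3 H4 was detected by AlphaScreen and IC50 calculated.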

HCT116-WT cells = experiment: Inhibitory activity against cell proliferation (CellTiter Glo, 6 days), HCT116-WT; type: cell-based; settings: 144 h, HCT116-WT cells, 6 days, CellTiter Glo; read-out: HCT116-WT IC50
Summary of the method: as §1

PRMT5-MTA, sequence (O14744 whole entry): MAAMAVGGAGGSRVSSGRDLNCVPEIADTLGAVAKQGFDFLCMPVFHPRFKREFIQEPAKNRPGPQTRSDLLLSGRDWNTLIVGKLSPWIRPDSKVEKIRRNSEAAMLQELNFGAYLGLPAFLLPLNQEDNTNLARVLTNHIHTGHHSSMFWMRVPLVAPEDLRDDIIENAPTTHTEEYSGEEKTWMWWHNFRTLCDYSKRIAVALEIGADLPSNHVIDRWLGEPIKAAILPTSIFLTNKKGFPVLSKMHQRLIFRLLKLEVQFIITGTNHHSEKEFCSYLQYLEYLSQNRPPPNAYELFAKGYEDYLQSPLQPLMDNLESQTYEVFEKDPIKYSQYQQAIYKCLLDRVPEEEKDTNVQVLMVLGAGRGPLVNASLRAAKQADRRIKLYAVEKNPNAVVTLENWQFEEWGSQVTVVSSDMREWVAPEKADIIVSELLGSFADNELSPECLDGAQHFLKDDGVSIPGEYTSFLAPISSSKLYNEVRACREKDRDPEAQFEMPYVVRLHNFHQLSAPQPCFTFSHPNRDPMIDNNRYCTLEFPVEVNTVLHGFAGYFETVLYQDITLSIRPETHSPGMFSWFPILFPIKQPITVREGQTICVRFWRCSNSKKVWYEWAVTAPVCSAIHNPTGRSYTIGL
PRMT5-MTA, sequence (Q9BQA1 whole entry partner): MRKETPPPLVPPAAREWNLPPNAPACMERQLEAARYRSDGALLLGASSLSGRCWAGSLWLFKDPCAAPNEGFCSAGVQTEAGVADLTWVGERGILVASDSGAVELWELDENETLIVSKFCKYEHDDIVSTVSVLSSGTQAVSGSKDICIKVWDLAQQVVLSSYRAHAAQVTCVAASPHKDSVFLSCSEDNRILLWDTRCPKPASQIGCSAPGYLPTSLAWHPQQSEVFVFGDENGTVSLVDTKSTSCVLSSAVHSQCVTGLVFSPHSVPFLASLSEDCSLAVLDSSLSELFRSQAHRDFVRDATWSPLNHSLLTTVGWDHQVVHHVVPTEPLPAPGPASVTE

Structure (SMILES) | IC50 (HCT116 MTAP KO cells) [nM] | Selectivity HCT 116-WT/ HCT116 MTAP KO (HCT116 MTAP KO cells) | IC50 (PRMT5-MTA; read-out: IC50) [nM] | IC50 (HCT116-WT cells) [nM] | IC50 (PRMT5-MTA) [nM]
C=C1CN(C(=O)c2cc3c(cc2Cl)nc(N)c2cnn(C)c23)N(c2cccc(F)n2)C1 [Example 435, (4-amino-7-chloro-1-methyl-1H-pyrazolo [4,3-c]quinolin-8-yl)(2-(6-fluoropyridin-2-yl)-4-methylenepyrazolidin-1-yl)methanone] | 15 | 27.13 | 7.3 | 407 | 
COC1CN(C(=O)c2cc3c(cc2C)nc(N)c2cnn(C)c23)N(c2ccccc2F)C1 (centres unmarked) [Example 436] | 27 | 27.19 |  | 734 | 4.8
COC1CN(C(=O)c2cc3c(cc2Cl)nc(N)c2cnn(C)c23)N(c2ccccc2F)C1 (centres unmarked) [Example 437, (4-amino-7-chloro-1-methyl-1H-pyrazolo [4,3-c]quinolin-8-yl)(2-(2-fluorophenyl)-4-methoxypyrazolidin-1-yl)methanone] | 13 | 18.62 | 4.7 | 242 | 
COC1CN(C(=O)c2cc3c(cc2Cl)nc(N)c2cnn(C)c23)N(c2ncc(Br)cc2F)C1 (centres unmarked) [Example 439, (4-amino-7-chloro-1-methyl-1H-pyrazolo [4,3-c]quinolin-8-yl)(2-(5-bromo-3-fluor opyridin-2-yl)-4-methoxypyrazolidin-1-yl)methanone] | 37 | 19.86 | 5.5 | 735 | 
COC1CN(C(=O)c2cc3c(cc2C)nc(N)c2cnn(C)c23)N(c2ncc(Cl)cc2F)C1 (centres unmarked) [Example 441, (4-amino-1,7-dimethyl-1H-pyrazolo[4,3-c]quinolin-8-y1)(2-(5-chloro-3-fluoropyridin-2-yl)-4-methoxypyrazolidin-1-yl)met hanone] | 48 | 37.31 | 7.2 | 1790 | 
COC1CN(C(=O)c2cc3c(cc2Cl)nc(N)c2cnn(C)c23)N(c2ncc(F)cc2F)C1 (centres unmarked) [Example 442, (4-amino-7-chloro-1-methyl-1H-pyrazolo [4,3-c]quinolin-8-yl)(2-(3,5-2 fluoropyridin-2-yl)-4-methoxypyrazolidin-1-yl)methanone] | 42 | 15.10 | 4.6 | 634 | 
COC1CN(C(=O)c2cc3c(cc2C)nc(N)c2cnn(C)c23)N(c2ncc(F)cc2F)C1 (centres unmarked) [Example 443, (4-amino-1,7-dimethyl-1H-pyrazolo[4,3-c]quinolin-8-yl)(2-(3,5- ? fluoropyridin-2-yl)-4-methoxypyrazolidin-1-yl)methanone] | 26 | 18.00 | 5 | 468 | 
COC1CN(C(=O)c2cc3c(cc2Cl)nc(N)c2cnn(C)c23)N(c2ncccc2F)C1 (centres unmarked) [Example 444, (4-amino-7-chloro-1-methyl-1H-pyrazolo [4,3-c]quinolin-8-yl)(2-(3-fluoropyridin-2-yl)-4-methoxypyrazolidin-1-yl)methanone] | 80 | 15.43 | 3.7 | 1230 | 
COC1CN(C(=O)c2cc3c(cc2C)nc(N)c2cnn(C)c23)N(c2cc(F)ccc2F)C1 (centres unmarked) [Example 445, (4-amino-1,7-dimethyl-1H-pyrazolo[4,3-c]quinolin-8-yl)(2-(2,5-difluorophenyl)-4-methoxypyrazolidin-1-yl)methanone] | 22 | 24.91 | 6.4 | 548 | 
COC1CN(C(=O)c2cc3c(cc2Cl)nc(N)c2cnn(C)c23)N(c2cccc(F)c2F)C1 (centres unmarked) [Example 447, (4-amino-7-chloro-1-methyl-1H-pyrazolo [4,3-c]quinolin-8-yl)(2-(2,3-difluorophenyl)-4-methoxypyrazolidin-1-yl)methanone] | 24 | 13.13 | 6.8 | 315 | 
COC1CN(C(=O)c2cc3c(cc2Cl)nc(N)c2cnn(C)c23)N(c2cccc(F)n2)C1 (centres unmarked) [Example 448, (4-amino-7-chloro-1-methyl-1H-pyrazolo [4,3-c]quinolin-8-yl)(2-(6-fluoropyridin-2-yl)-4-methoxypyrazolidin-1-yl)methanone] | 27 | 21.70 | 5.1 | 586 | 
COC1CN(C(=O)c2cc3c(cc2C)nc(N)c2cnn(C)c23)N(c2cccc(F)n2)C1 (centres unmarked) [Example 449, (4-amino-1,7-dimethyl-1H-pyrazolo[4,3-c]quinolin-8-yl)(2-(6-fluoropyridin-2-yl) -4-methoxypyrazolidin-1-yl)methanone] | 63 | 23.37 | 5.2 | 1470 | 
Cc1cc2nc(N)c3cnn(C)c3c2cc1C(=O)N1CC(F)CN1c1ncccc1F (centres unmarked) [Example 450, (4-amino-1,7-dimethyl-1H-pyrazolo[4,3-c]quinolin-8-yl)(4-fluoro-2-(3-fluoropyridin-2-yl)pyrazolidin-1-yl)methanone] | 20 | 61.20 | 3.8 | 1220 | 
Cn1ncc2c(N)nc3cc(Cl)c(C(=O)N4CC(OCC(F)(F)F)CN4c4ncccc4F)cc3c21 (centres unmarked) [Example 451, (4-amino-7-chloro-1-methyl-1H-pyrazolo[4,3-c]quinolin-8-yl)(2-(3-fluoropyridin-2-yl)-4-(2,2,2-trifluoroethoxy)pyrazolidin-1-yl)methanone] | 40 | 25.30 | 7 | 1010 | 
Cc1cc2nc(N)c3cnn(C)c3c2cc1C(=O)N1CC(OCC(F)(F)F)CN1c1ncccc1F (centres unmarked) [Example 452, (4-amino-1,7-dimethyl-1H-pyrazolo[4,3-c]quinolin-8-yl)(2-(3-fluoropyridin-2-yl)-4-(2,2,2-trifluoroethoxy)pyrazolidin-1-yl) methanone] | 45 | 31.67 | 7.3 | 1420 | 
CCOC1CN(C(=O)c2cc3c(cc2C)nc(N)c2cnn(C)c23)N(c2ncccc2F)C1 (centres unmarked) [Example 453, (4-amino-1,7-dimethyl-1H-pyrazolo[4,3-c]quinolin-8-yl)(4-ethoxy-2-(3-fluoropyridin-2-yl)pyrazolidin-1-yl)methanone] | 23 | 22.74 | 5.2 | 523 | 
[2H]C([2H])([2H])OC1CN(C(=O)c2cc3c(cc2C)nc(N)c2cnn(C)c23)N(c2ncccc2F)C1 (centres unmarked) [Example 454, (4-amino-1,7-dimethyl-1H-pyrazolo[4,3-c]quinolin-8-yl)(2-(3-fluoropyridin-2-yl)-4-(methoxy-D3)pyrazolidin-1-yl)methanone] | 36 | 20.89 | 5.9 | 752 | 
Cc1cc2nc(N)c3cnn(C)c3c2cc1C(=O)N1CC(F)(F)CN1c1ncccc1F [Example 455, (4-amino-1,7-dimethyl-1H-pyrazolo[4,3-c]quinolin-8-yl)(4,4-difluoro-2-(3-fluoropyridin-2-yl)pyrazolin-1-yl)methanone] | 9.5 | 32.11 | 10.1 | 305 | 
Cn1ncc2c(N)nc3cc(Cl)c(C(=O)N4CC(F)(F)CN4c4ncc(Br)cc4F)cc3c21 [Example 456, (4-amino-7-chloro-1-methyl-1H-pyrazolo [4,3-c]quinolin-8-yl)(2-(5-bromo-3-fluor opyridin-2-yl)-4,4-difluoropyrazolidin-1-yl)methanone] | 28 | 68.89 | 7 | 1930 | 
Cn1ncc2c(N)nc3cc(Cl)c(C(=O)N4CC(F)(F)CN4c4ccccc4F)cc3c21 [Example 457, (4-amino-7-chloro-1-methyl-1H-pyrazolo [4,3-c]quinolin-8-yl)(4,4-difluoro-2-(2-fluorophenyl)pyrazolidin-1-yl)methanone] | 12 | 10.25 | 7.5 | 123 | 
Cn1ncc2c(N)nc3cc(Cl)c(C(=O)N4CC(F)(F)CN4c4ncc(F)cc4F)cc3c21 [Example 458, (4-amino-7-chloro-1-methyl-1H-pyrazolo [4,3-c]quinolin-8-yl)(2-(3,5-difluoropyridin-2-yl)-4,4-difluoropyrazolidin-1-yl)met hanone] | 15 | 24.73 | 5.1 | 371 | 
Cn1ncc2c(N)nc3cc(Cl)c(C(=O)N4CC(F)(F)CN4c4ncccc4F)cc3c21 [Example 459, (4-amino-7-chloro-1-methyl-1H-pyrazolo [4,3-c]quinolin-8-yl)(4,4-difluoro-2-(3-fluoropyridin-2-yl)pyrazolidin-1-yl)methanone] | 30 | 13.60 | 4.7 | 408 | 
Cn1ncc2c(N)nc3cc(Cl)c(C(=O)N4CC(F)(F)CN4c4ncc(Cl)cc4F)cc3c21 [Example 460, (4-amino-7-chloro-1-methyl-1H-pyrazolo [4,3-c]quinolin-8-yl)(2-(5-chloro-3-fluoropyridin-2-yl)-4,4-difluoropyrazolidin-1-yl)methanone] | 18 | 26.61 | 8.2 | 479 | 
